Article PMC12663137 (Nature Communications, 2025)
Values joined by “and” are separate entries in the source; they are usually repeats but may differ in a detail not shown here. Identical values can stand only once.

What was measured:
[1] = molecular target: T1, SV2AEM (Homo sapiens, UniProt Q7L0J3); test: Competitive displacement of 10 nM 3H-UCB-J, SV2AEM membranes (Fig. 1A); assay type: binding; conditions: for Binding of 3H-UCB-J (%): SV2A_EM; for binding response of SV2AEM vs wild-type SV2A: competition with 3H-UCB-J
T1 construct: expressed in transfected cells; host or cells: HEK293 (ATCC CRL-1573), crude membranes (transient transfection or baculovirus)
Method: (§1) Ligand binding studies were carried out using crude membranes prepared from HEK293 cells (ATCC, CRL-1573) overexpressing mVenus-SV2AWT or SV2AEM. Membranes were prepared either from transiently transfected cells or from baculovirus-infected cells as described previously. Cells were washed with DPBS (Ca^2+ and Mg^2+ free), followed by resuspending in cold SH buffer (10 mM HEPES-Tris pH 7.4, 320 mM sucrose) containing protease inhibitor cocktail (MedChemExpress) to a density of 10^7 cells/ml. This cell suspension was homogenized by passing through a bead homogenizer (Isobiotec) with 10-micron clearance bead on ice. The lysate was then centrifuged at 4000 × g for 5 min at 4 °C, and the supernatant was aliquoted, frozen in liquid nitrogen, and stored at −80 °C. The mVenus fluorescence estimated using fluorescence size-exclusion chromatography (FSEC) was used to normalize expression levels of mVenus-SV2A mutants studied as detailed previously. For all binding studies, membranes containing […] protein (estimated by BCA method) per reaction were used.
(§2) To obtain dose-response curves of studied SV2A ligands, membranes diluted in 0.2 ml binding buffer (50 mM Tris-Cl, pH 7.4, and 2 mM MgCl2) were incubated with indicated concentrations of ligands for 30 min at 4 °C. […] The binding reaction was arrested by trapping membranes on Unifilter-GF/C 96-well filter plates (Revvity) pre-soaked with 0.1%(w/v) polyethyleneimine (PEI). Membranes were then washed four times with 0.2 ml of cold binding buffer, dried, and 40 µl of scintillation liquid was added to each well. Radioactivity was monitored in MicroBeta2 plate counter (Revvity). Estimates for IC50 were obtained from fitting the data to three-parameter dose-response curves using GraphPad Prism 10.

[2] = molecular target: T2, SV2AWT (Homo sapiens, UniProt Q7L0J3); test: Competitive displacement of 10 nM 3H-UCB-J, SV2AWT membranes (Fig. 1A); assay type: binding; conditions: SV2A_WT
T2 construct: expressed in transfected cells; host or cells: HEK293 (ATCC CRL-1573), crude membranes
Method: as §1, §2

[3] = tested on: SV2A; test: Affinity of PSL for the orthosteric site compared with LEV and BRV (author response); assay type: binding; conditions: PSL vs LEV
Excerpt: - Does PSL modulate the binding of LEV or BRV to SV2A? Based on the ﬁndings of the present study, such experiments need to be included.
We appreciate this comment. It is not feasible to evaluate the modulatory eƯect of PSL on the binding of LEV or BRV, because PSL also binds to the orthosteric site, with much higher aƯinity than LEV (>1000-fold) or BRV (~100-fold), and directly competes with and readily displaces them (see Fig. below, for LEV , and PMID:
31619465 for BRV). This competitive eƯect of PSL on LEV and BRV has also been described in the literature (PMID: 31619465). We have discussed this limitation in the revised manuscript.
- SV2s belong to the SLC22 family. Is the allosteric binding site conserved in some of these proteins like for […]
Among the four key residues in the allosteric site (F188, Y461, S601, and L655), F188 and Y461 are conserved in OCT1 and OCT2; S601 is not conserved, and L655 is replaced by an alanine in OCT1 and OCT2 (Fig. below).
- Because no information is provided, I guess that the allosteric binding site of SV2A is not conserved in all MFS transporters. Therefore, the title is misleading and should be changed.
As described above, some of the key residues at this site are conserved in OCTs. However, it is unlikely that any single site, orthosteric or allosteric, is conserved across the entire MFS transporter family, and we fully […]

[4] = tested on: SV2A WT and L655Q; test: 3H-padsevonil saturation binding, WT and L655Q (Supplementary Fig. 7D); parameters: species or system human; conditions: L655Q vs WT
Method: as §1
An equal volume of dimethyl sulfoxide (DMSO) was added to control reactions. Reactions were arrested after 2 h by trapping the membranes on a Unifilter-GF/C 96-well filter plate pre-soaked with 0.1%(w/v) polyethyleneimine. […] Radioactivity was monitored in MicroBeta2 plate counter. […]

[5] = tested on: SV2A; parameters: method as in PMID: 31619465; conditions: PSL vs BRV; ref PMID: 31619465; cited from earlier work
[6] = tested on: SV2A WT and L655Q; parameters: method as in PMID: 31619465; conditions: previous literature; ref PMID: 31619465; cited from earlier work

T2 sequence (Q7L0J3 whole entry): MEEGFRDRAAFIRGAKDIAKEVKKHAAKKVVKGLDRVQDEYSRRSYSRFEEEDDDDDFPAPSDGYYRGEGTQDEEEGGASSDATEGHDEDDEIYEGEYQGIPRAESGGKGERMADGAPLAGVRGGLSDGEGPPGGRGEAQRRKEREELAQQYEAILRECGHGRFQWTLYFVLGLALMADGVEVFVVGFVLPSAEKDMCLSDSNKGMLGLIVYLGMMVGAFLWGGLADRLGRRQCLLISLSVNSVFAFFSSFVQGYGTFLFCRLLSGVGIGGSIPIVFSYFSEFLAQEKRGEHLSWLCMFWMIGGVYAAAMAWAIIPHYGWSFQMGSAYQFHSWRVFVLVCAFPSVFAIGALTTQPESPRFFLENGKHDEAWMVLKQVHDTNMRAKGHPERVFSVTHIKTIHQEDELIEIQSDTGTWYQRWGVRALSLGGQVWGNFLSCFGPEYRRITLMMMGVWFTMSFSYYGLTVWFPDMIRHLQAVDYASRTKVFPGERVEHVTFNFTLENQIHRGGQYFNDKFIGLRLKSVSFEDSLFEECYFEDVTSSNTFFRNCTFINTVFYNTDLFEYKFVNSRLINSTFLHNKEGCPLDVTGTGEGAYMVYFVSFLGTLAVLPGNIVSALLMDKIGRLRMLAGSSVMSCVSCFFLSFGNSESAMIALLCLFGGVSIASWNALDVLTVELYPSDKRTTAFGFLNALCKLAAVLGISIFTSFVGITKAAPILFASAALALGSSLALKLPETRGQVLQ
T1 sequence (Q7L0J3 141-742): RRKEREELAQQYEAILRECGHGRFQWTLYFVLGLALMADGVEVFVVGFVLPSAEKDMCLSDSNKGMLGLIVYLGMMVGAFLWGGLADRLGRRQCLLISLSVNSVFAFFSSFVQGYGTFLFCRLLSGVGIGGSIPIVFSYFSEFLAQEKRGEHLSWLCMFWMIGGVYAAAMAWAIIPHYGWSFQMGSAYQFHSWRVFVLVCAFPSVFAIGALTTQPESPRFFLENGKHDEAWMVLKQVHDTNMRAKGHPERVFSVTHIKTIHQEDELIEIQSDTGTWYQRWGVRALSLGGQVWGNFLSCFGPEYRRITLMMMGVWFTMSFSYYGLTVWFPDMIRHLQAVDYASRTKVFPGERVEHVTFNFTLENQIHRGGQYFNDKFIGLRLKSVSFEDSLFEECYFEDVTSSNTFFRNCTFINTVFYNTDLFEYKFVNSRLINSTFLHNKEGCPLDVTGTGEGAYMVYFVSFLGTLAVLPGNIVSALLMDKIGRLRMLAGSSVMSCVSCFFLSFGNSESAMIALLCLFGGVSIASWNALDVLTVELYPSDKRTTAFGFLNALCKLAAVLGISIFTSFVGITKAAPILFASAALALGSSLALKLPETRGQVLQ

Structure (SMILES): Cc1cnccc1CN1C[C@@H](c2cc(F)c(F)c(F)c2)CC1=O [UCB-J]
- Binding of 3H-UCB-J (%) ([1]; Log [1H-UCB-J] (M) -6.523): 2.78% and -1.47% and -5.78% and -0.31% and 4.06% and 1.75%
- Binding of 3H-UCB-J (%) ([1]; Log [1H-UCB-J] (M) -7.523): 15.59% and 10.62% and 12.56% and 12.68% and 13.47% and 20.94%
- Binding of 3H-UCB-J (%) ([1]; Log [1H-UCB-J] (M) -8.000): 31.93% and 22.52% and 28.83% and 28.77% and 31.87% and 32.29%
- Binding of 3H-UCB-J (%) ([1]; Log [1H-UCB-J] (M) -8.523): 75.64% and 50.69% and 48.99% and 56.15% and 58.52% and 59.86%
- Binding of 3H-UCB-J (%) ([1]; Log [1H-UCB-J] (M) -9.000): 73.21% and 53.48% and 72.67% and 79.47% and 76.43% and 84.63%
- Binding of 3H-UCB-J (%) ([1]; Log [1H-UCB-J] (M) -10.000): 81.17% and 90.15%
- Binding of 3H-UCB-J (%) ([1]; Log [1H-UCB-J] (M) -11.000): 103.75% and 70.18% and 88.51% and 77.34% and 86.03% and 113.17%
- Binding of 3H-UCB-J (%) ([1]; Log [1H-UCB-J] (M) -12.000): 116.50% and 86.88% and 109.04% and 74.97% and 104.60% and 108.00%
- IC50 fold lower than that of levetiracetam ([1]; UCB-J vs levetiracetam): 1000 fold
- binding response of SV2AEM vs wild-type SV2A [1]: comparable to those of wild-type SV2A
- IC50 ([1]; radioligand displacement, 10 nM 3H-UCB-J, padsevonil sentence prints SV2A (Fig. 1)): 4.1 ± 0.4 nM
- Binding of 3H-UCB-J (%) ([2]; Log [1H-UCB-J] (M) -5.000): 0.68% and -0.10%
- Binding of 3H-UCB-J (%) ([2]; Log [1H-UCB-J] (M) -6.000): 0.71% and -0.36% and 1.84% and 0.28% and 0.81% and 0.45%
- Binding of 3H-UCB-J (%) ([2]; Log [1H-UCB-J] (M) -6.523): 1.22% and 0.52% and -0.33% and 0.54% and 1.39% and 0.90%
- Binding of 3H-UCB-J (%) ([2]; Log [1H-UCB-J] (M) -7.523): 12.02% and 10.25% and 9.91% and 8.99% and 8.62% and 8.05%
- Binding of 3H-UCB-J (%) ([2]; Log [1H-UCB-J] (M) -8.000): 31.03% and 29.35% and 27.21% and 30.71% and 28.47% and 28.55%
- Binding of 3H-UCB-J (%) ([2]; Log [1H-UCB-J] (M) -8.523): 65.52% and 65.94% and 58.12% and 42.68% and 40.88% and 45.33%
- Binding of 3H-UCB-J (%) ([2]; Log [1H-UCB-J] (M) -9.000): 87.65% and 87.60% and 75.33% and 94.15% and 69.01% and 65.28%
- Binding of 3H-UCB-J (%) ([2]; Log [1H-UCB-J] (M) -9.523): 75.61% and 87.06% and 81.72% and 100.70% and 107.65% and 91.65%
- Binding of 3H-UCB-J (%) ([2]; Log [1H-UCB-J] (M) -10.000): 99.86% and 95.05% and 102.73% and 88.69% and 93.37% and 102.84%
- Binding of 3H-UCB-J (%) ([2]; Log [1H-UCB-J] (M) -11.000): 103.52% and 102.05% and 94.43% and 83.50% and 83.58% and 84.45%

Structure (SMILES): COCc1nn2c(CN3C[C@@H](CC(F)(F)Cl)CC3=O)c(C(F)(F)F)nc2s1 [padsevonil]
- orthosteric site affinity higher than LEV [3]: > 1000 fold
- Binding of 3H-UCB-J (%) ([1]; Log [Padsevonil] (M) -5.000): 3.25% and 0.52% and -0.52% and -1.49% and 2.74% and 1.94%
- Binding of 3H-UCB-J (%) ([1]; Log [Padsevonil] (M) -6.000): 0.40% and 1.18% and 0.39% and -2.99% and 2.99% and -0.40%
- Binding of 3H-UCB-J (%) ([1]; Log [Padsevonil] (M) -6.523): 3.53% and 6.77% and 1.25% and 5.54% and 6.72% and 2.16%
- Binding of 3H-UCB-J (%) ([1]; Log [Padsevonil] (M) -8.000): 61.56% and 69.84% and 60.36% and 64.16% and 85.63% and 52.51%
- Binding of 3H-UCB-J (%) ([1]; Log [Padsevonil] (M) -8.523): 98.63% and 86.36% and 64.73% and 84.51% and 93.84% and 76.42%
- Binding of 3H-UCB-J (%) ([1]; Log [Padsevonil] (M) -9.000): 99.89% and 102.95% and 84.66% and 80.15% and 101.99% and 100.11%
- Binding of 3H-UCB-J (%) ([1]; Log [Padsevonil] (M) -10.000): 102.45% and 91.95% and 108.05% and 96.45% and 103.55% and 82.92%
- binding response of SV2AEM vs wild-type SV2A [1]: comparable to those of wild-type SV2A
- padsevonil binding in L655Q mutant compared to wild-type [4]: not able to detect a substantial difference
- orthosteric site affinity higher than BRV [5]: ~ 100 fold
- Hill coefficient [6]: ~1
- Binding of 3H-UCB-J (%) ([2]; Log [Padsevonil] (M) -5.523): 0.15% and -0.08% and -0.07% and 0.0758% and -0.0562%
- Binding of 3H-UCB-J (%) ([2]; Log [Padsevonil] (M) -6.000): 0.06% and 0.26% and 0.47% and 0.68% and 0.17% and 0.52%
- Binding of 3H-UCB-J (%) ([2]; Log [Padsevonil] (M) -6.523): -0.0333% and 0.63% and 1.13% and 0.79% and 1.06%
- Binding of 3H-UCB-J (%) ([2]; Log [Padsevonil] (M) -7.000): 0.99% and 1.18% and 1.52% and 1.41% and 1.96% and 1.26%
- Binding of 3H-UCB-J (%) ([2]; Log [Padsevonil] (M) -7.523): 11.48% and 11.90% and 12.69% and 11.26% and 10.29% and 8.18%
- Binding of 3H-UCB-J (%) ([2]; Log [Padsevonil] (M) -8.000): 53.01% and 65.10% and 62.58% and 68.15% and 66.28% and 57.17%
- Binding of 3H-UCB-J (%) ([2]; Log [Padsevonil] (M) -8.523): 80.92% and 83.61% and 90.83% and 87.28% and 90.55% and 93.06%
- Binding of 3H-UCB-J (%) ([2]; Log [Padsevonil] (M) -9.000): 70.83% and 92.57% and 94.89% and 80.96% and 85.33% and 98.78%
- Binding of 3H-UCB-J (%) ([2]; Log [Padsevonil] (M) -9.523): 81.14% and 79.95% and 92.20% and 92.92% and 81.04% and 90.08%
- Binding of 3H-UCB-J (%) ([2]; Log [Padsevonil] (M) -10.000): 105.07% and 88.23% and 106.70% and 105.83% and 107.31% and 86.86%
